Test results taken from paper PMC6155662, “Trypanocidal Activity of Quinoxaline 1,4 Di-N-oxide Derivatives as Trypanothione Reductase Inhibitors” (Molecules : A Journal of Synthetic Chemistry and Natural …, 2017).

Key:
[1] = test system: T. cruzi bloodstream trypomastigotes INC-5 strain; test: microbe, parasite or virus in culture; assay type: cell-based; conditions: Trypanosoma cruzi; for killing at 50 µg/mL: 50 μg/mL, 24 h at 4 °C, infected mouse blood, read-out: % Lysis at 50 μg/mL INC-5 Strain; for CC50: 24 h, bloodstream trypomastigotes, 24 h at 4 °C (called IC50 in abstract), read-out: LC50 INC-5 Strain
Method: (§1) In this study, two strains of T. cruzi isolated in Mexico were used. T. cruzi NINOA strain (MHOM/MX/1994/NINOA) was obtained from a patient with acute Chagas disease and T. cruzi INC-5 (MHOM/MX/1994/INC5) was isolated from a patient in the chronic phase of the disease. Epimastigotes were cultured in vitro in liver infusion-tryptose (LIT) medium supplemented with 10% heat inactivated fetal bovine serum (FBS) (Gibco) and 100 U/mL penicillin-streptomycin (In vitro S.A.), and incubated at 27 °C. CD1 mice, aged 6–8 weeks, were infected with T. cruzi to obtain bloodstream trypomastigote samples. Animal experiments were performed according to Norma Oficial Mexicana (NOM-062-Z00-1999) published on 22 August, 2009.
(§2) CD1 female mice 6–8 weeks old were infected with T. cruzi bloodstream trypomastigotes of the INC-5 and NINOA strains. The course of infection continued for 4–6 weeks. At the peak of parasitemia blood was obtained by cardiac puncture using sodium heparin as an anticoagulant. The blood was adjusted to 1 × 10^6 bloodstream trypomastigotes/mL.
(§3) In each well of the 96-well plate, 195 μL of infected blood and 5 μL of quinoxaline 1,4-di-N-oxide derivatives or reference drug dilutions were seeded, with each well reaching a final volume of 200 µL. Each assay was performed in triplicate. Initially, all compounds were tested at 50 μg/mL. […] As a negative control of lysis, wells with untreated blood trypomastigotes were used, and as a positive control, wells with the reference drugs were used. The microplates were incubated at 4 °C for 24 h. Bloodstream trypomastigotes were quantified by the method of Brener-Pizzi, 5 μL of blood were placed on a slide and covered with a coverslip 13 × 13 mm. The mobile protozoa were counted in 15 fields at 40× magnification using an optical microscope. The percentage lysis was determined by comparing the remaining trypomastigotes against the negative control. LC50 was determined with the Probit statistical tool. The results were later converted to micromolar units.

[2] = test system: T. cruzi bloodstream trypomastigotes NINOA strain; test: microbe, parasite or virus in culture; assay type: cell-based; conditions: Trypanosoma cruzi; for killing at 50 µg/mL: 50 μg/mL, 24 h at 4 °C, infected mouse blood, read-out: % Lysis at 50 μg/mL NINOA Strain; for LC50: 24 h
Method: as §1, §2, §3

[3] = Cytotoxicity assay (Alamar Blue) on macrophages; assay type: cell-based, murine; conditions: mouse, J774A.1 macrophages, mean and SD of triplicate
Method: The murine macrophage cell line J774.A1 was maintained in culture flasks with RPMI 1640 medium supplemented with 10% FBS, 1% MEM-NEAA medium (Gibco) and 100 U/mL antibiotic-antifungal mixture (Gibco). Cells were incubated at 37 °C with 5% CO2 and humidity. Trypsinized J774.A1 macrophages were washed and viability was assessed by the trypan blue dye (Sigma-Aldrich, Toluca, Edo de Mexico, Mexico) exclusion assay. In a 96-well microplate, 50,000 macrophages were seeded per well and a dose-response assay was performed. Compounds were evaluated using six-fold serial dilutions ranging from 100 µg/mL to 0.3 µg/mL of final concentration. Each compound was tested in triplicate. After 20 h incubation, Alamar Blue was added (10% v/v) and cells were incubated for an additional 4 h period. Results were obtained as previously described and CC50 was calculated. As a negative control of cytotoxicity, cells were incubated only in the presence of 0.1% DMSO [39, 40].

[4] = test system: T. cruzi INC-5 epimastigotes; test: Viability (MTT) assay on T. cruzi epimastigotes; assay type: cell-based, Trypanosoma cruzi; conditions: Trypanosoma cruzi, 24 h, mean and SD of triplicate
Method: In this study, two strains of T. cruzi isolated in Mexico were used. […] Epimastigotes were cultured in vitro in liver infusion-tryptose (LIT) medium supplemented with 10% heat inactivated fetal bovine serum (FBS) (Gibco) and 100 U/mL penicillin-streptomycin (In vitro S.A.), and incubated at 27 °C. CD1 mice, aged 6–8 weeks, were infected with T. cruzi to obtain bloodstream trypomastigote samples.
Viability assays of T. cruzi epimastigotes using 3-(4,5-dimethylthiazol-2-yl)-2,5-diphenyltetrazolium bromide (MTT) were performed. Briefly, the parasites were harvested during the exponential growth phase for a period of five days. In a 96-well microplate 1x10^6 epimastigotes were deposited in brain-heart infusion (BHI) medium supplemented with 10% FBS and 100 U/mL antibiotic-antifungal mixture (Gibco). […] Each well reached a final volume of 100 µL. Each condition was assessed in triplicate. The microplate was incubated for 24 h at 27 °C in darkness. Afterwards, 10 μL of a 5 mg/mL MTT solution was added and the plate was incubated for 20 h at 27 °C. Then 200 μL of 10% dodecyl sulfate (SDS)/0.1% HCl solution was added to dissolve formazan salts; the plate was incubated an additional 4 h. Finally, the plate was read at 570 nm in a spectrophotometer (Multiskan EX Thermo Electron, Taipei, Taiwan). The amount of viable cells was proportional to the amount of formazan produced. […] Later the results were converted to micromolar units. […] As a […] control, parasites were incubated only in culture medium with a 1% DMSO concentration, corresponding to the highest sample dilution of DMSO [34, 35, 36].

`CCCOC(=O)c1ccc2c(c1)[n+]([O-])c(C(=O)OCC)c(C)[n+]2[O-]` [Compound T-090, n-Propil ethyl-3-methylquinoxaline-2,7-dicarboxylate 1,4-di-N-oxide] gave a killing at 50 µg/mL [1] of 47.3 ± 3.3%, a killing at 50 µg/mL [2] of 28.6 ± 3.1% and a CC50 at 24 h [3] of 146 ± 9.2 µM. The IC50 [4] was 155 ± 12.3 µM.
Work on `Cc1c(C(N)=O)[n+]([O-])c2cc(C(=O)OC(C)C)ccc2[n+]1[O-]` [Compound T-108, Isopropyl 2-amide-3-methyl-quinoxaline-7-carboxilate 1,4-di-N-óxide] yielded a killing at 50 µg/mL [1] of 18.8 ± 2.8%, a killing at 50 µg/mL [2] of 12.8 ± 7.2% and a CC50 at 24 h [3] of 221 ± 9.4 µM. The IC50 [4] was 131 ± 12.3 µM.
`CCCOC(=O)c1ccc2c(c1)[n+]([O-])c(C(C)=O)c(C)[n+]2[O-]` [Compound T-126, n-Propyl 2-acetyl-3-methylquinoxaline-7-carboxylate 1,4-di-N-oxide] gave a killing at 50 µg/mL [1] of 0%, a killing at 50 µg/mL [2] of 17.7 ± 3.1% and a CC50 at 24 h [3] of over 327 µM. The IC50 [4] was over 163 µM.
In the case of `Cc1c(C(=O)Nc2ccccc2)[n+]([O-])c2cc(C(=O)OC(C)C)ccc2[n+]1[O-]` [Compound T-097, Isopropyl 2-phenylamide-3-methylquinoxaline-7-carboxylate 1,4-di-N-oxide], the killing at 50 µg/mL [1] is reported as 12.4 ± 5.2%, the killing at 50 µg/mL [2] is reported as 12.2 ± 10.9% and the CC50 at 24 h [3] is reported as over 261 µM. The IC50 [4] was over 130 µM.
In the case of `CCCOC(=O)c1ccc2c(c1)[n+]([O-])c(C(=O)Nc1ccccc1)c(C)[n+]2[O-]` [Compound T-125, n-Propyl 2-phenylamide-3-methylquinoxaline-7-carboxylate 1,4-di-N-oxide], the killing at 50 µg/mL [1] is reported as 0%, the killing at 50 µg/mL [2] is reported as 35.6 ± 3.6% and the CC50 at 24 h [3] is reported as over 261 µM. For the same molecule, the IC50 [4] was over 130 µM.
Molecule `O=C(Cn1ccnc1[N+](=O)[O-])NCc1ccccc1` [Bnz, benznidazole, reference compound] has a CC50 [1] of 85.3 ± 16.7 µM, a killing at 50 µg/mL [1] of 53.5 ± 5.6% and a killing at 50 µg/mL [2] of 58.1 ± 4.5%. The CC50 at 24 h [3] was 352 ± 17.1 µM and the IC50 [4] was 42.3 ± 5.76 µM.
For `CCCOC(=O)c1ccc2c(c1)[n+]([O-])c(C(=O)OC)c(C)[n+]2[O-]` [Compound T-088, n-Propil methyl-3-methylquinoxaline-2,7-dicarboxylate 1,4-di-N-oxide], the killing at 50 µg/mL [1] was 33.6 ± 6.8%, the killing at 50 µg/mL [2] was 16.3 ± 11.1% and the CC50 at 24 h [3] was 143 ± 9.7 µM. It also gave an IC50 [4] of 139 ± 13.5 µM.
`COC(=O)c1c(C)[n+]([O-])c2ccc(C(=O)OC(C)C)cc2[n+]1[O-]` [Compound T-064, Isopropyl methyl-3-methyl-quinoxaline-2,7-dicarboxylate 1,4-di-N-oxide] showed a killing at 50 µg/mL [1] of 1.7 ± 2%, a killing at 50 µg/mL [2] of 3.2 ± 2% and a CC50 at 24 h [3] of 135 ± 11.1 µM. For the same molecule, the IC50 [4] was 43.7 ± 8.6 µM.
For `CCCOC(=O)c1ccc2c(c1)[n+]([O-])c(C(=O)OC(C)(C)C)c(C)[n+]2[O-]` [Compound T-091, n-Propil tert-butyl-3-methylquinoxaline-2,7-dicarboxylate 1,4-di-N-oxide], the killing at 50 µg/mL [1] was 8.15 ± 2.2%, the killing at 50 µg/mL [2] was 7.3 ± 3.3% and the CC50 at 24 h [3] was over 273 µM. For the same molecule, the IC50 [4] was over 137 µM.
`CCCOC(=O)c1ccc2c(c1)[n+]([O-])c(C(N)=O)c(C)[n+]2[O-]` [Compound T-130, n-Propyl 2-amide-3-methylquinoxaline-7-carboxylate 1,4-di-N-oxide] gave a killing at 50 µg/mL [1] of 0.69 ± 1.2%, a killing at 50 µg/mL [2] of 4.65 ± 3.4% and a CC50 at 24 h [3] of over 326 µM. The IC50 [4] was 238 ± 11.5 µM.
Work on `CC(C)OC(=O)c1ccc2c(c1)[n+]([O-])c(C(=O)c1ccco1)c(C(F)(F)F)[n+]2[O-]` [Compound T-073, Isopropyl 2-(furyl-2-carbonyl)-3-trifluoromethylquinoxaline-7-carboxylate 1,4-di-N-oxide] yielded a killing at 50 µg/mL [1] of 22.1 ± 4.32%, a killing at 50 µg/mL [2] of 35 ± 4.5% and a CC50 at 24 h [3] of 55.4 ± 2.9 µM. It also gave an IC50 [4] of 33.7 ± 9.2 µM.
In the case of `CC(C)OC(=O)c1ccc2c(c1)[n+]([O-])c(C(=O)C(C)(C)C)c(C(C)(C)C)[n+]2[O-]` [Compound T-107, Isopropyl 2-(tert-butyl-2-carbonyl)-3-tert-butylquinoxaline-7-carboxylate 1,4-di-N-oxide], the killing at 50 µg/mL [1] is reported as 5.32 ± 3.8%, the killing at 50 µg/mL [2] is reported as 6.28 ± 4.7% and the CC50 at 24 h [3] is reported as 164 ± 7.7 µM. For the same molecule, the IC50 [4] was 91.7 ± 10.5 µM.
Molecule `CC(C)OC(=O)c1ccc2c(c1)[n+]([O-])c(C(=O)C(F)(F)C(F)(F)F)c(C(F)(F)F)[n+]2[O-]` [Compound T-118, Isopropyl 2-pentafluorocarbonyl-3-trifluoromethylquinoxaline-7-carboxylate 1,4-di N-oxide] has a killing at 50 µg/mL [1] of 0%, a killing at 50 µg/mL [2] of 34.4 ± 3.1% and a CC50 at 24 h [3] of 157 ± 6.3 µM. For the same molecule, the IC50 [4] was 72.2 ± 8 µM.
`CC(C)OC(=O)c1ccc2c(c1)[n+]([O-])c(C(=O)c1ccccc1)c(C(F)(F)F)[n+]2[O-]` [Compound T-071, Isopropyl 2-benzoyl-3-trifluoromethylquinoxaline-7-carboxylate 1,4-di-N-oxide] showed a CC50 [1] of 103 ± 8.3 µM, a killing at 50 µg/mL [1] of 69.2 ± 5.1% and an LC50 [2] of 97.8 ± 6.3 µM. For the same molecule, the killing at 50 µg/mL [2] was 58.8 ± 4.4%, the CC50 at 24 h [3] was 6.7 ± 0.8 µM and the IC50 [4] was 4.03 ± 0.5 µM.
For `Cc1c(C(=O)OC(C)(C)C)[n+]([O-])c2cc(C(=O)OC(C)C)ccc2[n+]1[O-]` [Compound T-066, Isopropyl tert-butyl-3-methylquinoxaline-2,7-dicarboxylate 1,4-di-N-oxide], the killing at 50 µg/mL [1] was 5.4 ± 3.7%, the killing at 50 µg/mL [2] was 2.6 ± 4.3% and the CC50 at 24 h [3] was over 273 µM. The IC50 [4] was over 137 µM.
For `CCOC(=O)c1c(C)[n+]([O-])c2ccc(C(=O)OC(C)C)cc2[n+]1[O-]` [Compound T-065, Isopropyl ethyl-3-methylquinoxaline-2,7-dicarboxylate 1,4-di-N-oxide], the killing at 50 µg/mL [1] was 3.78 ± 5.7%, the killing at 50 µg/mL [2] was 0.77 ± 1.58% and the CC50 at 24 h [3] was over 296 µM. For the same molecule, the IC50 [4] was over 148 µM.
`CC1CS(=O)(=O)CCN1/N=C/c1ccc([N+](=O)[O-])o1` (centres unmarked) [Nfx, nifurtimox, reference compound] showed a killing at 50 µg/mL [1] of 62.6 ± 3.9%, a killing at 50 µg/mL [2] of 67.3 ± 5.4% and a CC50 at 24 h [3] of 201 ± 12.5 µM. For the same molecule, the IC50 [4] was 8.74 ± 3.8 µM.
`CCCOC(=O)c1ccc2c(c1)[n+]([O-])c(C(=O)c1cccs1)c(C(F)(F)F)[n+]2[O-]` [Compound T-089, n-Propil 2-(thiophene-2-carbonyl)-3-trifluoromethylquinoxaline-7-carboxylate 1,4-di-N-oxide] gave a CC50 [1] of 122 ± 6.5 µM, a killing at 50 µg/mL [1] of 42 ± 6.5% and an LC50 [2] of 115 ± 8.4 µM. The killing at 50 µg/mL [2] was 51.6 ± 3.4%, the CC50 at 24 h [3] was 7.71 ± 0.7 µM and the IC50 [4] was 7.59 ± 1.4 µM.
Work on `CC(C)OC(=O)c1ccc2c(c1)[n+]([O-])c(C(=O)c1cccs1)c(C(F)(F)F)[n+]2[O-]` [Compound T-069, Isopropyl 2-(thiophene-2-carbonyl)-3-trifluoromethylquinoxaline-7-carboxylate 1,4-di-N-oxide] yielded a CC50 [1] of 111 ± 9.3 µM, a killing at 50 µg/mL [1] of 77.7 ± 9.3% and an LC50 [2] of 98 ± 6.1 µM. It also gave a killing at 50 µg/mL [2] of 57.3 ± 2.8%, a CC50 at 24 h [3] of 12.8 ± 0.6 µM and an IC50 [4] of 4.95 ± 0.5 µM.
